Where two headings read alike, the source gives them in different places.
Columns and labels:
Type in all cases: in vivo
Rhyncosporium secalis = test: Barley scald (RHYNSE), percent disease control; details: 24 h, 1 Day Protectant, read-out: Disease control RHYNSE 1DP
Method: Technical grades of materials were dissolved in acetone, which were then mixed with nine volumes of water containing 110 ppm Triton X-100. The fungicide solutions were applied onto wheat seedlings using an automated booth sprayer to run-off. All sprayed plants were allowed to air dry prior to further handling. All fungicides were evaluated using the aforementioned method for their activity vs. all target diseases. Wheat leaf blotch and brown rust activity were also evaluated using track spray applications, in which case the fungicides were formulated as EC formulations, containing 0.1% Trycol 5941 in the spray solutions. Wheat plants (variety Yuma) were grown from seed in a greenhouse in 50% mineral soil/50% soil-less Metro mix until the first leaf was fully emerged, with 7-10 seedlings per pot. These plants were inoculated with an aqueous spore suspension of Septoria tritici either prior to or after fungicide treatments. After inoculation the plants were kept in 100% relative humidity (one day in a dark dew chamber followed by two to three days in a lighted dew chamber at 20° C.) to permit spores to germinate and infect the leaf. The plants were then transferred to a greenhouse set at 20° C. for disease to develop. When disease symptoms were fully expressed on the 1st leaves of untreated plants, infection levels were assessed on a scale of 0 to 100 percent disease severity. Percent disease control was calculated using the ratio of disease severity on treated plants relative to untreated plants. Evaluation of Fungicidal Activity: Barley Scald (Rhyncosporium secalis; Bayer Code […]) Barley seedlings (variety Harrington) were propagated in soil-less Metro mix, with each pot having 8 to 12 plants, and used in the test when first leaf was fully emerged. Test plants were inoculated by an aqueous spore suspension of Rhyncosporium secalis 24 hr after fungicide treatments. After inoculation the plants were kept in a dew room at 20° C. with 100% relative humidity for 48 hr. The plants were then transferred to a greenhouse set at 20° C. for disease to develop. Fungicide formulation, application and disease assessment on the sprayed leaves followed the procedures as described in the Example A.

Puccinia triticina = test: Wheat brown rust (PUCCRT), percent disease control on wheat seedlings; details: rate 100 ppm
[1] = system: Mycosphaerella graminicola; Anamorph: Septoria tritici; test: Leaf blotch of wheat (SEPTTR), percent disease control on wheat seedlings; details: Zymoseptoria tritici, rate 100 ppm
Method: Evaluation of Fungicidal Activity: Leaf Blotch of Wheat (Mycosphaerella graminicola; Anamorph: Septoria tritici; Bayer Code […]) Technical grades of materials were dissolved in acetone, which were then mixed with nine volumes of water containing 110 ppm Triton X-100. The fungicide solutions were applied onto wheat seedlings using an automated booth sprayer to run-off. All sprayed plants were allowed to air dry prior to further handling. All fungicides were evaluated using the aforementioned method for their activity vs. all target diseases. Wheat leaf blotch and brown rust activity were also evaluated using track spray applications, in which case the fungicides were formulated as EC formulations, containing 0.1% Trycol 5941 in the spray solutions. Wheat plants (variety Yuma) were grown from seed in a greenhouse in 50% mineral soil/50% soil-less Metro mix until the first leaf was fully emerged, with 7-10 seedlings per pot. These plants were inoculated with an aqueous spore suspension of Septoria tritici either prior to or after fungicide treatments. […] When disease symptoms were fully expressed on the 1st leaves of untreated plants, infection levels were assessed on a scale of 0 to 100 percent disease severity. Percent disease control was calculated using the ratio of disease severity on treated plants relative to untreated plants.

Question: How did the pest or weed control at 100 ppm (Rhyncosporium secalis) turn out when `COc1ccnc(C(=O)N[C@H]2CCC[C@H](Oc3ccccc3)[C@@H](CCC(C)C)[C@H](C)OC2=O)c1OCOC(C)=O` [Compound 40] was run?
Answer: > 70%

Question: How did the pest or weed control at 100 ppm (Rhyncosporium secalis) turn out when `CCCC[C@H]1[C@H](C)OC(=O)[C@@H](NC(=O)c2nccc(OC)c2OCOC(C)=O)CCC[C@@H]1Oc1ccccc1` [Compound 33] was run?
Answer: > 70%

Question: `COc1ccnc(C(=O)N[C@H]2CCC[C@H](OCC(C)C)[C@@H](Cc3ccccc3)[C@H](C)OC2=O)c1O` [Compound 62] was tested. Which pest or weed control at 100 ppm (Puccinia triticina; 24 h, 1 Day Protectant, read-out: Disease control PUCCRT 1DP) did it give?
Answer: > 70%

Question: And the pest or weed control at 100 ppm (Puccinia triticina; 72 h, 3 Day Curative, read-out: Disease control PUCCRT 3DC)?
Answer: > 70%

Question: And the pest or weed control at 100 ppm ([1]; 24 h, 1 Day Protectant, read-out: Disease control SEPTTR 1DP)?
Answer: > 70%

Question: And the pest or weed control at 100 ppm ([1]; 72 h, 3 Day Curative, read-out: Disease control SEPTTR 3DC)?
Answer: < 70%

Question: With `CCCO[C@H]1CCC[C@H](NC(=O)c2nccc(OC)c2OC(C)=O)C(=O)O[C@@H](C)[C@@H]1CCC(C)C` [Compound 74, 2-((3S,7S,8S,9S)-8-isopentyl-9-methyl-2-oxo-7-propoxyoxonan-3-yl)carbamoyl)-4-methoxypyridin-3-yl acetate] as the compound, how does the pest or weed control at 100 ppm (Rhyncosporium secalis) read?
Answer: > 70%

Question: With `CCCO[C@H]1CCC[C@H](NC(=O)c2nccc(OC)c2OC(C)=O)C(=O)O[C@@H](C)[C@@H]1Cc1ccccc1` [Compound 70] as the compound, how does the pest or weed control at 100 ppm (Rhyncosporium secalis) read?
Answer: > 70%

Question: With `COc1ccnc(C(=O)N[C@H]2CCC[C@H](Oc3ccccc3)[C@@H](CCC(C)C)[C@H](C)OC2=O)c1OC(C)=O` [Compound 36] as the compound, how does the pest or weed control at 100 ppm (Rhyncosporium secalis) read?
Answer: > 70%

Question: `CCCC[C@H]1[C@H](C)OC(=O)[C@@H](NC(=O)c2nccc(OC)c2OCOC(C)=O)CCC[C@@H]1OCC1CC1` [Compound 73] was tested. Which pest or weed control at 100 ppm (Rhyncosporium secalis) did it give?
Answer: > 70%

Question: Which pest or weed control at 100 ppm (Rhyncosporium secalis) does the source give for `CCCO[C@H]1CCC[C@H](NC(=O)c2nccc(OC)c2OCOC(C)=O)C(=O)O[C@@H](C)[C@@H]1CCC(C)C` [Compound 25, ((2-(((3S,7S,8S,9S)-8-isopentyl-9-methyl-2-oxo-7-propoxyoxonan-3-yl)carbamoyl)-4-methoxypyridin-3-yl)oxy)methyl acetate] here?
Answer: > 70%

Question: For `COc1ccnc(C(=O)N[C@H]2CCC[C@H](OCC3CC3)[C@@H](Cc3ccc(F)cc3)[C@H](C)OC2=O)c1OCOC(C)=O` [Compound 61], which pest or weed control at 100 ppm (Rhyncosporium secalis) is on record?
Answer: > 70%

Reference: patent publication US9549555B2, “Macrocyclic picolinamide compounds with fungicidal activity” (DOW AGROSCIENCES LLC, priority 2013, dated 2017)
